In US20130309736A1, “COMPOSITIONS AND METHODS FOR MALATE AND FUMARATE PRODUCTION” (CARGILL, INCORPORATED, priority 2011, published 2013):

Tests used:
[1] = 15.5° C.; cited from earlier work
yeast cells = experiment: EMS mutagenesis, kill rate; format: cell-based; conditions: 3 μL EMS in 200 μL cell suspension (OD600 around 10), approximately one hour
Protocol: For example, yeast cells from a fresh YP (yeast extract/peptone)+20 g/L glucose plate or liquid culture (OD600 1-4) are resuspended in sterile water to an OD600 of around 10. 200 μL aliquots of this cell suspension are pipetted into individual tubes and exposed to 3 μL […] (EMS) for approximately one hour, which kills around 65% of the cells. Higher EMS concentrations can also be used to increase the kill rate. After exposure, cells are neutralized with 5% sodium thiosulfate, washed in PBS buffer, recovered in rich media for approximately four hours, and cultured on selective media. Mock samples (no EMS) are also run to ensure that the conditions are selective. Alternatively, cell can be mutagenized using UV irradiation.

[2] = test system: Candida lambica ATCC 38617; experiment: Glucose consumption rate in YPD shake flasks (second secondary screen); format: cell-based
Protocol: (§1) For the second secondary screen, glucose consumption was measured in YPD media containing 0 g/L malate at pH 3.0 or 200 g/L malate at pH 2.85. Shake flasks were inoculated with biomass harvested from seed flasks grown overnight to an OD600 of 6 to 10. 250 mL baffled glycolytic assay flasks (50 mL working volume) were inoculated to an OD600 of 0.1 and grown at 250 RPM and 30° C. Samples were taken throughout the time course of the assay and analyzed for glucose consumption using a 2700 Biochemistry Analyzer (Yellow Springs Instruments, YSI). The resulting data was plotted and glucose consumption rates were established.
(§2) The same procedures were utilized to screen, rate, and score the original 91 wild-type yeast strains from the primary screen with media containing 0, 30, 45, and 60 g/L lactic acid at pH 3.0 (˜80% free acid). Due to difficulties in properly scoring some very weak growth that occasionally occurred at 60 g/L, 20 strains were re-tested in the primary screen. Of these 20 strains, eight were eliminated due to very slow growth relative to the rest of the test group. The remaining 12 strains were advanced into secondary screening. The secondary screen for lactic acid was the same as that described above for malate, except for changes in concentrations and pH values. Growth rates were measured at 0 g/L lactic acid, pH 3.0 and 50 g/L lactic acid, pH 2.85, and glucose consumption rates were measured in the presence of 50 g/L lactic acid, pH 2.85. Normalized values and weighted and summed scores were calculated for each strain as described above for malate.

[3] = test system: Issatchenkia orientalis ATCC 24210; experiment: as above; format: cell-based
Protocol: as §1, §2

[4] = test system: Issatchenkia orientalis ATCC PTA-6658; experiment: as above; format: cell-based
Protocol: as §1, §2

[5] = test system: Issatchenkia orientalis CD1822; experiment: as above; format: cell-based
Protocol: as §1, §2

[6] = test system: Candida sorbosivorans ATCC 38619; experiment: as above; format: cell-based
Protocol: as §1, §2

[7] = test system: Saccharomyces bulderi ATCC MYA-404; experiment: as above; format: cell-based
Protocol: as §1, §2

[8] = test system: Candida lambica ATCC 38617; experiment: Growth rate in YPD shake flasks (first secondary screen); format: cell-based
Protocol: (§3) For the first secondary screen, growth rates were measured in YPD media containing 0 g/L malate at pH 3.0 or 200 g/L malate at pH 2.85. Shake flasks were inoculated with biomass harvested from seed flasks grown overnight to an OD600 of 6 to 10. 250 mL baffled growth rate flasks (50 mL working volume) were inoculated to an OD600 of 0.1 and grown at 250 rpm and 30° C. Samples were taken throughout the time course of the assay and analyzed for biomass growth via OD600. The resulting OD600 data was plotted and growth rates were established.
as §2

[9] = test system: Issatchenkia orientalis ATCC 24210; experiment: as above; format: cell-based
Protocol: as §3, §2

[10] = test system: Issatchenkia orientalis ATCC PTA-6658; experiment: as above; format: cell-based
Protocol: as §3, §2

[11] = test system: Issatchenkia orientalis CD1822; experiment: as above; format: cell-based
Protocol: as §3, §2

[12] = test system: Candida sorbosivorans ATCC 38619; experiment: as above; format: cell-based
Protocol: as §3, §2

[13] = test system: Saccharomyces bulderi ATCC MYA-404; experiment: as above; format: cell-based
Protocol: as §3, §2

[14] = test system: Issatchenkia orientalis ATCC 60585; experiment: Glucose consumption rate in YPD shake flasks (second secondary screen); format: cell-based
Protocol: as §1

[15] = test system: Candida vanderwaltii MUCL 30000; experiment: as above; format: cell-based
Protocol: as §1

[16] = test system: Candida guilliermondii ATCC 20118; experiment: as above; format: cell-based
Protocol: as §1

[17] = test system: Candida sorbosivorans CD1978; experiment: as above; format: cell-based
Protocol: as §1

[18] = test system: Issatchenkia orientalis ATCC 60585; experiment: Growth rate in YPD shake flasks (first secondary screen); format: cell-based
Protocol: as §3

[19] = test system: Candida vanderwaltii MUCL 30000; experiment: as above; format: cell-based
Protocol: as §3

[20] = test system: Candida guilliermondii ATCC 20118; experiment: as above; format: cell-based
Protocol: as §3

[21] = test system: Candida sorbosivorans CD1978; experiment: as above; format: cell-based
Protocol: as §3

[22] = test system: seven wild-type yeast strains; experiment: Range finding: overnight growth in microtiter wells with malate; format: cell-based; conditions: YPD, 30° C.
Protocol: The range of malate concentrations to utilize in primary screening procedures was determined by evaluating the ability of seven wild-type yeast strains (Candida sonorensis, Candida zemplinina, I. orientalis strain PTA-6658, I. orientalis strain CD1822, Kluyveromyces lactis, K. marxianus, S. cerevisiae strain CENPK 113-7D) to grow on media containing varying levels of malate. Cells were streaked onto YPD plates and grown overnight. A cell slurry with an OD600 of around 4 was made in YPD media, pH 3.0, and this slurry was used to inoculate microtiter wells containing various concentrations of malate to an OD600 of 0.05. Plates were covered with a gas permeable membrane and incubated in a 30° C./300 rpm shaker overnight. The optical densities of each well were measured at a wavelength of 600 nm in a GENios model plate reader (Tecan), and plates were observed visually for growth. The highest malate concentration that one or more of the strains grew in (350 g/L) was chosen as the upper range for primary screening procedure.

wild-type yeast strains = experiment: Additional primary screen: growth on microtiter plates with malate; format: cell-based; conditions: ten strains of 24 re-tested; 200 g/L malate, pH 2.85, microtiter plates, overnight
Protocol: For the primary screening procedure, 91 wild-type yeast strains were screened for growth on microtiter plates at pH 2.85 with 0 g/L, 150 g/L, 300 g/L, or 350 g/L pH 2.85 malate using the same protocol used for range finding. A fresh YPD plate was used for each strain, and a slurry with an OD600 of around 4 was made in YPD media, pH 3.0. The slurry was used to inoculate each well to an OD600 of 0.05. Plates were covered with a gas permeable membrane, and incubated in a 30° C./300 rpm shaker overnight. Optical densities of each well were measured at 600 nm in a GENios model plate reader, and plates were observed visually for growth. To account for plate-to-plate variability, I. orientalis PTA-6658 was included on all plates as a control. […] As such, an additional screen was added wherein the 24 strains that grew as well or better than the I. orientalis control strain were re-tested. […] These ten strains were advanced to the secondary screens. […] However, it is possible that one or more such strains could nonetheless meet the minimum requirements for a commercially viable fermentation process.

[23] = Candida sorbosivorans ATCC 24120, scale 0 to 1
[24] = Candida sorbosivorans ATCC 38619, YPD, 30° C.
[25] = malate, slope of growth rates against acid concentration, scale 0 to 1

Structure (SMILES): O=C(O)/C=C/C(=O)O [Fumarate, trans-butanedioic acid]
- water solubility [1]: 4.28 g/kg H2O

Structure (SMILES): CCOS(C)(=O)=O [ethane methyl sulfonate]
- cells killed (yeast cells): around 65%

Structure (SMILES): O=C(O)CC(O)C(=O)O (stereo not drawn) [malate, hydroxybutanedioc acid]
- Glucose consumption rate 200 g/L malate (pH 2.85) ([2]; YPD, 30° C.): 3.2 g L^−1 h^−1
- Normalized grade: Glucose consumption rate 200 g/L malate (pH 2.85) ([2]; scale 0 to 1): 0.95
- Glucose consumption rate 200 g/L malate (pH 2.85) ([3]; YPD, 30° C.): 3.1 g L^−1 h^−1
- Normalized grade: Glucose consumption rate 200 g/L malate (pH 2.85) ([3]; scale 0 to 1): 0.90
- Glucose consumption rate 200 g/L malate (pH 2.85) ([4]; YPD, 30° C.): 3.3 g L^−1 h^−1
- Normalized grade: Glucose consumption rate 200 g/L malate (pH 2.85) ([4]; scale 0 to 1): 1.00
- Glucose consumption rate 200 g/L malate (pH 2.85) ([5]; YPD, 30° C.): 3.3 g L^−1 h^−1
- Normalized grade: Glucose consumption rate 200 g/L malate (pH 2.85) ([5]; scale 0 to 1): 1.00
- Normalized grade: Glucose consumption rate 200 g/L malate (pH 2.85) [6, 23]: 0.05
- Glucose consumption rate 200 g/L malate (pH 2.85) [6, 24]: 1.4 g L^−1 h^−1
- Glucose consumption rate 200 g/L malate (pH 2.85) ([7]; YPD, 30° C.): 3.15 g L^−1 h^−1
- Normalized grade: Glucose consumption rate 200 g/L malate (pH 2.85) ([7]; scale 0 to 1): 0.93
- Growth rate 200 g/L malate (pH 2.85) ([8]; YPD, 30° C.): 0.33 h^−1
- Normalized grade: Growth rate slope [8, 25]: 0.41
- Normalized grade: Growth rate 200 g/L malate (pH 2.85) ([8]; scale 0 to 1): 0.00
- Growth rate 200 g/L malate (pH 2.85) ([9]; YPD, 30° C.): 0.39 h^−1
- Normalized grade: Growth rate slope [9, 25]: 0.56
- Normalized grade: Growth rate 200 g/L malate (pH 2.85) ([9]; scale 0 to 1): 0.55
- Growth rate 200 g/L malate (pH 2.85) ([10]; YPD, 30° C.): 0.44 h^−1
- Normalized grade: Growth rate slope [10, 25]: 0.67
- Normalized grade: Growth rate 200 g/L malate (pH 2.85) ([10]; scale 0 to 1): 1.00
- Growth rate 200 g/L malate (pH 2.85) ([11]; YPD, 30° C.): 0.42 h^−1
- Normalized grade: Growth rate slope [11, 25]: 0.67
- Normalized grade: Growth rate 200 g/L malate (pH 2.85) ([11]; scale 0 to 1): 0.82
- Normalized grade: Growth rate slope ([12]; Candida sorbosivorans ATCC 24120, malate, slope of growth rates against acid concentration, scale 0 to 1): 0.92
- Normalized grade: Growth rate 200 g/L malate (pH 2.85) [12, 23]: 0.36
- Growth rate 200 g/L malate (pH 2.85) [12, 24]: 0.37 h^−1
- Growth rate 200 g/L malate (pH 2.85) ([13]; YPD, 30° C.): 0.39 h^−1
- Normalized grade: Growth rate slope [13, 25]: 1.00
- Normalized grade: Growth rate 200 g/L malate (pH 2.85) ([13]; scale 0 to 1): 0.55
- Glucose consumption rate 200 g/L malate (pH 2.85) ([14]; YPD, 30° C.): 2.7 g L^−1 h^−1
- Normalized grade: Glucose consumption rate 200 g/L malate (pH 2.85) ([14]; scale 0 to 1): 0.70
- Glucose consumption rate 200 g/L malate (pH 2.85) ([15]; YPD, 30° C.): 1.3 g L^−1 h^−1
- Normalized grade: Glucose consumption rate 200 g/L malate (pH 2.85) ([15]; scale 0 to 1): 0.00
- Glucose consumption rate 200 g/L malate (pH 2.85) ([16]; Candida guilliermondii ATCC 20118, YPD, 30° C.): 1.9 g L^−1 h^−1
- Normalized grade: Glucose consumption rate 200 g/L malate (pH 2.85) ([16]; Candida guilliermondii, scale 0 to 1): 0.30
- Glucose consumption rate 200 g/L malate (pH 2.85) ([17]; YPD, 30° C.): 1.85 g L^−1 h^−1
- Normalized grade: Glucose consumption rate 200 g/L malate (pH 2.85) ([17]; scale 0 to 1): 0.28
- Growth rate 200 g/L malate (pH 2.85) ([18]; YPD, 30° C.): 0.36 h^−1
- Normalized grade: Growth rate slope [18, 25]: 0.54
- Normalized grade: Growth rate 200 g/L malate (pH 2.85) ([18]; scale 0 to 1): 0.27
- Growth rate 200 g/L malate (pH 2.85) ([19]; YPD, 30° C.): 0.39 h^−1
- Normalized grade: Growth rate slope [19, 25]: 0.92
- Normalized grade: Growth rate 200 g/L malate (pH 2.85) ([19]; scale 0 to 1): 0.55
- Growth rate 200 g/L malate (pH 2.85) ([20]; YPD, 30° C.): 0.42 h^−1
- Normalized grade: Growth rate slope [20, 25]: 1.00
- Normalized grade: Growth rate 200 g/L malate (pH 2.85) ([20]; scale 0 to 1): 0.82
- Growth rate 200 g/L malate (pH 2.85) ([21]; YPD, 30° C.): 0.34 h^−1
- Normalized grade: Growth rate slope [21, 25]: 0.00
- Normalized grade: Growth rate 200 g/L malate (pH 2.85) ([21]; scale 0 to 1): 0.09
- highest malate concentration that one or more of the strains grew in [22]: 350 g/L
- optical density relative to the same strain in 0 g/L malic acid (wild-type yeast strains): greater than or equal to 50%
